From BindingDB's records for doi:10.1016/s0960-894x(97)10151-2 (Merck, 1999)

Target: Endothelin receptor type B (Sus scrofa)
Experiment: Inhibition of [125I]ET1 binding to porcine kidney inner medulla membrane Endothelin B receptor

Row | IC50 [µM] | Structure (SMILES)
1 | 1.2 | CCCOc1ccc2c(c1)c(-c1ccc(OC)cc1)c(C(=O)O)n2Cc1ccc2nsnc2c1 [1-Benzo[1,2,5]thiadiazol-5-ylmethyl-3-(4-methoxy-phenyl)-5-propoxy-1H-indole-2-carboxylic acid]
2 | 0.3 | COc1ccc(-c2c(C(=O)O)c(=O)n(Cc3ccc4nsnc4c3)c3c2oc2ccccc23)cc1 [1-Benzo[1,2,5]thiadiazol-5-ylmethyl-4-(4-methoxy-phenyl)-2-oxo-1,2-dihydro-benzo[4,5]furo[3,2-b]pyridine-3-carboxylic acid]
3 | 0.44 | COc1ccc(-c2c(C(=O)O)c(=O)n(Cc3ccc4c(c3)OCO4)c3c2oc2ccccc23)cc1 [1-Benzo[1,3]dioxol-5-ylmethyl-4-(4-methoxy-phenyl)-2-oxo-1,2-dihydro-benzo[4,5]furo[3,2-b]pyridine-3-carboxylic acid]
4 | 0.34 | COc1ccc(C2(O)OC(=O)C(c3ccc4nsnc4c3)=C2Cc2cc(OC)c(OC)c(OC)c2)cc1 (configuration not stated) [3-Benzo[1,2,5]thiadiazol-5-yl-5-hydroxy-5-(4-methoxy-phenyl)-4-(3,4,5-trimethoxy-benzyl)-5H-furan-2-one]
5 | 5.3 | CCCOc1ccc2c(c1)c(-c1ccc3c(c1)OCO3)c(C(=O)O)n2Cc1ccc2nonc2c1 [3-Benzo[1,3]dioxol-5-yl-1-benzo[1,2,5]oxadiazol-5-ylmethyl-5-propoxy-1H-indole-2-carboxylic acid]
6 | 1.6 | CCCOc1ccc2c(c1)c(-c1ccc3c(c1)OCO3)c(C(=O)O)n2Cc1ccc2c(c1)OCO2 [3-Benzo[1,3]dioxol-5-yl-1-benzo[1,3]dioxol-5-ylmethyl-5-propoxy-1H-indole-2-carboxylic acid]
7 | > 10 | CN(C)c1cccc2c(S(=O)(=O)Nc3ccc4c(c3)OCO4)cccc12 [5-Dimethylamino-naphthalene-1-sulfonic acid benzo[1,3]dioxol-5-ylamide]
